{"source": "patent US9456606B2", "about": "“Pesticidal mixtures” (Syngenta Participations AG, priority 2011, dated 2016)", "tested_on": "Tetranvchus urticae (Two-Spotted Spider Mite)", "assay": "Tetranychus urticae bean leaf disc spray test, mobile stages mortality after 8 days, with COLBY expected action", "type": "in vivo", "details": "for C8 observed control %: C8 alone; for DMET observed control %: DMET alone; for SPAT observed control %: SPAT alone", "source_text": "The action to be expected E for a given active ingredient combination obeys the so-called COLBY formula and can be calculated as follows (COLBY, S. R. “Calculating synergistic and antagonistic responses of herbicide combination”. Weeds, Vol. 15, pages 20-22; 1967):\nAccording to COLBY, the expected (additive) action of active ingredients A)+B) using p+q ppm of active ingredient is\nIf the action actually observed (O) is greater than the expected action (E), then the action of the combination is super-additive, i.e. there is a synergistic effect. In mathematical terms the synergism factor SF corresponds to O/E. In the agricultural practice an SF of ≧1.2 indicates significant improvement over the purely complementary addition of activities (expected activity), while an SF of ≦0.9 in the practical application routine signals a loss of activity compared to the expected activity.\nTetranvchus urticae (Two-Spotted Spider Mite)\nBean leaf discs on agar in 24-well microtiter plates are sprayed with test solutions (DMSO). After drying, the leaf discs are infested with mite populations of mixed ages. 8 days later, discs are checked for mobile stages (I removed “mixed population”) mortality.\nColumns 4 and 5 show the control observed from the compounds alone. […] When a compound applied alone gave no control at a particular rate, it is assumed that lower rates of that compound alone also give no control. DMET=deltamethrin, SPAT=spirotetramat, C8=compound 8 in Table C.", "data": [{"smiles": "CCC(=O)NC1CCc2cc(C3=NOC(c4cc(Cl)cc(Cl)c4)(C(F)(F)F)C3)ccc21", "note": "(racemic) [C8]", "values": [{"measurement": "C8 observed control %", "setting": "0.094 ppm, Table 1", "value": 0, "unit": "%"}, {"measurement": "C8 observed control %", "setting": "0.187 ppm, Table 1", "value": 0, "unit": "%"}, {"measurement": "C8 observed control %", "setting": "0.375 ppm, Table 1", "value": 0, "unit": "%"}, {"measurement": "C8 observed control %", "setting": "0.375 ppm, Table 2", "value": 0, "unit": "%"}, {"measurement": "C8 observed control %", "setting": "0.75 ppm, Table 1", "value": 25, "unit": "%"}, {"measurement": "C8 observed control %", "setting": "0.75 ppm, Table 2", "value": 55, "unit": "%"}, {"measurement": "C8 observed control %", "setting": "1.5 ppm, Table 1", "value": 65, "unit": "%"}, {"measurement": "C8 observed control %", "setting": "1.5 ppm, Table 2", "value": 80, "unit": "%"}, {"measurement": "C8 observed control %", "setting": "3.0 ppm, Table 2", "value": 95, "unit": "%"}, {"measurement": "C8 observed control %", "setting": "6.0 ppm, Table 2", "value": 95, "unit": "%"}]}, {"smiles": "CC1(C)[C@H](C(=O)O[C@H](C#N)c2cccc(Oc3ccccc3)c2)[C@@H]1C=C(Br)Br", "note": "[DMET, deltamethrin]", "values": [{"measurement": "DMET observed control %", "setting": "0.39 ppm", "value": 0, "unit": "%"}, {"measurement": "DMET observed control %", "setting": "0.781 ppm", "value": 0, "unit": "%"}, {"measurement": "DMET observed control %", "setting": "1.562 ppm", "value": 0, "unit": "%"}, {"measurement": "DMET observed control %", "setting": "3.125 ppm", "value": 0, "unit": "%"}, {"measurement": "DMET observed control %", "setting": "6.25 ppm", "value": 75, "unit": "%"}, {"measurement": "DMET observed control %", "setting": "12.5 ppm", "value": 80, "unit": "%"}, {"measurement": "DMET observed control %", "setting": "25 ppm", "value": 90, "unit": "%"}, {"measurement": "DMET observed control %", "setting": "50 ppm", "value": 90, "unit": "%"}]}, {"smiles": "CCOC(=O)OC1=C(c2cc(C)ccc2C)C(=O)N[C@]12CC[C@@H](OC)CC2", "note": "[SPAT, spirotetramat]", "values": [{"measurement": "SPAT observed control %", "setting": "1.56 ppm", "value": 0, "unit": "%"}, {"measurement": "SPAT observed control %", "setting": "3.125 ppm", "value": 0, "unit": "%"}, {"measurement": "SPAT observed control %", "setting": "3.25 ppm", "value": 0, "unit": "%"}, {"measurement": "SPAT observed control %", "setting": "6.25 ppm", "value": 25, "unit": "%"}, {"measurement": "SPAT observed control %", "setting": "12.5 ppm", "value": 65, "unit": "%"}, {"measurement": "SPAT observed control %", "setting": "25 ppm", "value": 80, "unit": "%"}, {"measurement": "SPAT observed control %", "setting": "50 ppm", "value": 85, "unit": "%"}, {"measurement": "SPAT observed control %", "setting": "100 ppm", "value": 85, "unit": "%"}, {"measurement": "SPAT observed control %", "setting": ".25 ppm", "value": 80, "unit": "%"}]}]}
